Measured values published in patent publication US11608338B2, “Imidazolonylquinolines and the use thereof as ATM kinase inhibitors” (priority 2015, dated 2023).

Legend:
Type in all cases: biochemical
[1] = target: PI3K p110α/p85α (human) (Homo sapiens (Human), UniProt P42336); assay: PI3K p110α/p85α (human), non-radioactive assay (HTRF); conditions: ATM versus PI3Kalpha
Experimental: PI3K p110α/p85α (Human), Non-Radioactive Assay
(§1) PI3K p110α/p85α (human) was incubated in an assay buffer comprising 10 μM phosphatidylinositol 4,5-bisphosphate and MgATP (concentration as necessary). The reaction was initiated by addition of MgATP solution. After incubation at room temperature for 40 minutes, the reaction was stopped by addition of a solution consisting of EDTA and biotinylated phosphatidylinositol 3,4,5-trisphosphate. Finally, the detection buffer, consisting of a europium-labelled anti-GST monoclonal antibody, a GST-labelled GRP1 PH domain and streptavidin allophycocyanin, was added. The plate was read out via homogeneous time-resolved fluorescence (HTRF) and the corresponding signals were evaluated via the formula HTRF=10000×(Em665 nm/Em620 nm).

[2] = target: PI3K p110δ/p85α (human) (Homo sapiens (Human), UniProt O00329); assay: PI3K p110δ/p85α (human), non-radioactive assay (HTRF); conditions: ATM versus PI3Kdelta
Experimental: PI3K p110δ/p85α (Human), Non-Radioactive Assay
as §1, with “p110δ/p85α” for “p110α/p85α”, “After an” for “After”, “incubation time of 30 min” for “incubation”, “temperature,” for “temperature for 40 minutes,”

[3] = target: PI3K (p120γ) (human) (Homo sapiens (Human), UniProt P48736); assay: PI3K (p120γ) (human), non-radioactive assay (HTRF); conditions: ATM versus PI3Kgamma
Experimental: PI3K (p120γ) (Human), Non-Radioactive Assay
as §1, with “(p120γ)” for “p110α/p85α”, “After an” for “After”, “incubation time of 30 min” for “incubation”, “temperature,” for “temperature for 40 minutes,”, “nm). • MgATP=magnesium 5′-O-[hydroxy({[(hydroxyphosphinato)oxy]phosphinato}oxy)phosphoryl]adenosine • MgCl2=magnesium dichloride • EGTA=ethylene glycol bis(aminoethyl ether) N,N,N′,N′-tetraacetic acid • Tween 20=polysorbate 20 Medicament/Pharmaceutical Composition” for “nm).”

[4] = target: mTOR (human) (Homo sapiens (Human), UniProt P42345); assay: mTOR (human) radiometric kinase assay; conditions: ATM versus mTOR
Experimental: Furthermore, the effect, in particular inhibition, of other kinases and thus the selectivity of the compounds according to the invention can be determined with the aid of the following assay:
mTOR (human) was incubated with 50 mM HEPES pH 7.5, 1 mM EGTA, 0.01% Tween 20, 2 mg/ml of the substrate, 3 mM MnCl2 and [γ-^33P-ATP] (specific activity approximately 500 cpm/pmol, concentration as necessary). The reaction was initiated by addition of MgATP solution. After incubation at room temperature for 40 minutes, the reaction was stopped by addition of 3% phosphoric acid. 10 μl of the reaction solution were then transferred dropwise onto a P30 filtermat and washed three times for 5 min in 75 mM phosphoric acid and once in methanol, dried and evaluated by means of liquid scintillation counting.

[5] = target: PI3K p110β/p85α (human) (Homo sapiens (Human), UniProt P42338); assay: PI3K p110β/p85α (human), non-radioactive assay (HTRF); conditions: ATM versus PI3Kbeta
Experimental: PI3K p110β/p85α (Human), Non-Radioactive Assay
as §1, with “p110β/p85α” for “p110α/p85α”, “After an” for “After”, “incubation time of 30 min” for “incubation”, “temperature,” for “temperature for 40 minutes,”

PI3K p110α/p85α (human), sequence (P42336 whole entry): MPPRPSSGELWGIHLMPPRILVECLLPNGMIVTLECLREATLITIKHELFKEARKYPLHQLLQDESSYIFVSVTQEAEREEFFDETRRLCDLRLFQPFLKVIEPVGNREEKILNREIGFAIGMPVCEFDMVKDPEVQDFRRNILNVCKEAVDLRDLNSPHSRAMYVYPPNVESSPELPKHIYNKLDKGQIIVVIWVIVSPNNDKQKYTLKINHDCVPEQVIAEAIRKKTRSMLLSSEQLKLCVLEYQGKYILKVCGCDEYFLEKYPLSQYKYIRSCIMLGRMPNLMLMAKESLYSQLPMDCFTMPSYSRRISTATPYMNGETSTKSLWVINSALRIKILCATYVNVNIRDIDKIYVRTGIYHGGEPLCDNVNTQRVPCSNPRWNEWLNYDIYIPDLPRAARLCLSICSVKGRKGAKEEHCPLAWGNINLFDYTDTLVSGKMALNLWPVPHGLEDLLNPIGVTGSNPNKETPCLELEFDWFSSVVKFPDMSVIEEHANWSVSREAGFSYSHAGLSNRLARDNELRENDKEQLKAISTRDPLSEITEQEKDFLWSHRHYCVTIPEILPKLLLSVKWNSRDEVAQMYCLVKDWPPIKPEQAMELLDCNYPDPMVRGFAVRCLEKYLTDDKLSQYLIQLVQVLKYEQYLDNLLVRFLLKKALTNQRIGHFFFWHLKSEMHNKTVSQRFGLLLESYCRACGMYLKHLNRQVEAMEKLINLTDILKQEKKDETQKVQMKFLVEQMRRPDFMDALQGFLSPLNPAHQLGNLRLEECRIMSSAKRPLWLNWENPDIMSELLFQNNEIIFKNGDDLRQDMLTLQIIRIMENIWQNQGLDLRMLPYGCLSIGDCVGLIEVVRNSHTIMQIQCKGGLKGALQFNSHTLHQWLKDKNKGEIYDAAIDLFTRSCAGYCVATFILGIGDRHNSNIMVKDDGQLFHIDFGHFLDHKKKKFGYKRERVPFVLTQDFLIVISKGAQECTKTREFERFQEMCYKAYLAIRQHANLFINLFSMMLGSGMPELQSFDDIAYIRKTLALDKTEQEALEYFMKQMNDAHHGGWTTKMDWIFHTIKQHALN
PI3K p110α/p85α (human), sequence (P27986 whole entry partner): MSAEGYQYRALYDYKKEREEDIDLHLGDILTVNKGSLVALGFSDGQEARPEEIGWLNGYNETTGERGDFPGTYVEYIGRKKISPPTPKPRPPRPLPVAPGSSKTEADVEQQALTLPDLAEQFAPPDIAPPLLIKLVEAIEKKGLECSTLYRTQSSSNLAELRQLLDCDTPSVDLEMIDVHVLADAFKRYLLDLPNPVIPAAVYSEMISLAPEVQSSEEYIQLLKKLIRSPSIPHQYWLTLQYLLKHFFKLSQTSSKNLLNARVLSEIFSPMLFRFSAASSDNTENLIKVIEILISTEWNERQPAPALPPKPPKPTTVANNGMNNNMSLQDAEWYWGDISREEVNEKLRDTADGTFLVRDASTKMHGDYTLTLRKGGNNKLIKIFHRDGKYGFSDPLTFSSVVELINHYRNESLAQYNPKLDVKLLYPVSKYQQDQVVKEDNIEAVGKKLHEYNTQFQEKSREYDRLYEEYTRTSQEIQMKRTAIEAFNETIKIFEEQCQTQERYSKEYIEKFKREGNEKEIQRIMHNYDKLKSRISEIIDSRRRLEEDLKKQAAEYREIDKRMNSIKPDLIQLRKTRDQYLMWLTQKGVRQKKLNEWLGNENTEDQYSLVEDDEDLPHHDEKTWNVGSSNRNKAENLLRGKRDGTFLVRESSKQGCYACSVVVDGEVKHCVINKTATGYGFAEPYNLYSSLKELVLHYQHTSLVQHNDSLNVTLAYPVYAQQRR
PI3K p110δ/p85α (human), sequence (O00329 whole entry): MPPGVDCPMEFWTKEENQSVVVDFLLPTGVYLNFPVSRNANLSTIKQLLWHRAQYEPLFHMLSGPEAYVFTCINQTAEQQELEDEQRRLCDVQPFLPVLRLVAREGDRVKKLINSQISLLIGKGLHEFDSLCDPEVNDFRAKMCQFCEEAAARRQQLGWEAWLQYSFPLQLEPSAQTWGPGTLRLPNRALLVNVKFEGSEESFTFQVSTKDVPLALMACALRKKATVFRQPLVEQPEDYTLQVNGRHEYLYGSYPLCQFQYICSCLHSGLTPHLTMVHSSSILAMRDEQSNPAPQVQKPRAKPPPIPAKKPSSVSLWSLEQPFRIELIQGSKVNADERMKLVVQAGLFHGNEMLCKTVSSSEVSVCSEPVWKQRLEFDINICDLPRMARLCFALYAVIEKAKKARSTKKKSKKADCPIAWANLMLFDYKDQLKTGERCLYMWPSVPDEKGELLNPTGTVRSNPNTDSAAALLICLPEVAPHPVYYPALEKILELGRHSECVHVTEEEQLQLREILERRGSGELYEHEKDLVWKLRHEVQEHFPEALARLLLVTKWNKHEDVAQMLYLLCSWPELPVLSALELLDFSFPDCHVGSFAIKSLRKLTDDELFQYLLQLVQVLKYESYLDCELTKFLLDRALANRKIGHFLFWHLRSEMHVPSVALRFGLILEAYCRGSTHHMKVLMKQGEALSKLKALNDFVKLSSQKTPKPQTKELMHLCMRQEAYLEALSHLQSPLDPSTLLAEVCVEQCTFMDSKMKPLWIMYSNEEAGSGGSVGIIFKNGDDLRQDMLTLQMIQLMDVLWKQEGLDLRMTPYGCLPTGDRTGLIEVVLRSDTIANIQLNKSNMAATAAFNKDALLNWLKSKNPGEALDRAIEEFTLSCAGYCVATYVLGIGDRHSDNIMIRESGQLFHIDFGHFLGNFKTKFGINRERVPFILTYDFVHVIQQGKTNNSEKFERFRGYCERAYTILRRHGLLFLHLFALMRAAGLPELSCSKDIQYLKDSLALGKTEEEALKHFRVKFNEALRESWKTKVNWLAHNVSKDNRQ
PI3K p110δ/p85α (human), sequence (P27986 whole entry partner): as the sequence (P27986 whole entry partner) above
PI3K (p120γ) (human), sequence (P48736 whole entry): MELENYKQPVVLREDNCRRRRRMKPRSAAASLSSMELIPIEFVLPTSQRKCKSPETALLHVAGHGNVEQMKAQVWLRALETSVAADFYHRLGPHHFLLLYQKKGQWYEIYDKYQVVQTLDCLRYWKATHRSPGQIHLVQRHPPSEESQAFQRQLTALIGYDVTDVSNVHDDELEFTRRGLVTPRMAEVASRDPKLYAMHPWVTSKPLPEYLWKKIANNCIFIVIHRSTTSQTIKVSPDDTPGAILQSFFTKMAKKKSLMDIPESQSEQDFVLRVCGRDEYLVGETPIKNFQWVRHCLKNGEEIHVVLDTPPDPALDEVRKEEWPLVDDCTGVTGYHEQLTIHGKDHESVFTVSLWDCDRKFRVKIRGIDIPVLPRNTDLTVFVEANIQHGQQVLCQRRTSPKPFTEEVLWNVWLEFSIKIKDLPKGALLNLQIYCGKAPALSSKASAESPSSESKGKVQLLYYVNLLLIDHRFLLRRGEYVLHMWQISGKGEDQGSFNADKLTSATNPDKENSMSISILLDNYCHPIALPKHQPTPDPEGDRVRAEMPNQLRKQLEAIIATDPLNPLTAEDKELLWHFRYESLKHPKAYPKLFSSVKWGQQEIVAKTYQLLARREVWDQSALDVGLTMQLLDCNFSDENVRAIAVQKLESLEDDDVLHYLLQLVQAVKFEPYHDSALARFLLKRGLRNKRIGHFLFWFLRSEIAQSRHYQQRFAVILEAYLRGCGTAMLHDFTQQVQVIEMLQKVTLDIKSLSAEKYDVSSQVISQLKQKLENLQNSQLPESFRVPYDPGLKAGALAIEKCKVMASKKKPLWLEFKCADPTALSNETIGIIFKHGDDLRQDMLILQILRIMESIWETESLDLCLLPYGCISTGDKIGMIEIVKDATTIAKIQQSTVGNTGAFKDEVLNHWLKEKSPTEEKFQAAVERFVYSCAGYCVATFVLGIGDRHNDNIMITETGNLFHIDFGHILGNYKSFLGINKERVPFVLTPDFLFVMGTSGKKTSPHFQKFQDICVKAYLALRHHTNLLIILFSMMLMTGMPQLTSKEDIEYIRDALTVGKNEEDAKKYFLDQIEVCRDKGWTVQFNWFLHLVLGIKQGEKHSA
PI3K p110β/p85α (human), sequence (P42338 whole entry): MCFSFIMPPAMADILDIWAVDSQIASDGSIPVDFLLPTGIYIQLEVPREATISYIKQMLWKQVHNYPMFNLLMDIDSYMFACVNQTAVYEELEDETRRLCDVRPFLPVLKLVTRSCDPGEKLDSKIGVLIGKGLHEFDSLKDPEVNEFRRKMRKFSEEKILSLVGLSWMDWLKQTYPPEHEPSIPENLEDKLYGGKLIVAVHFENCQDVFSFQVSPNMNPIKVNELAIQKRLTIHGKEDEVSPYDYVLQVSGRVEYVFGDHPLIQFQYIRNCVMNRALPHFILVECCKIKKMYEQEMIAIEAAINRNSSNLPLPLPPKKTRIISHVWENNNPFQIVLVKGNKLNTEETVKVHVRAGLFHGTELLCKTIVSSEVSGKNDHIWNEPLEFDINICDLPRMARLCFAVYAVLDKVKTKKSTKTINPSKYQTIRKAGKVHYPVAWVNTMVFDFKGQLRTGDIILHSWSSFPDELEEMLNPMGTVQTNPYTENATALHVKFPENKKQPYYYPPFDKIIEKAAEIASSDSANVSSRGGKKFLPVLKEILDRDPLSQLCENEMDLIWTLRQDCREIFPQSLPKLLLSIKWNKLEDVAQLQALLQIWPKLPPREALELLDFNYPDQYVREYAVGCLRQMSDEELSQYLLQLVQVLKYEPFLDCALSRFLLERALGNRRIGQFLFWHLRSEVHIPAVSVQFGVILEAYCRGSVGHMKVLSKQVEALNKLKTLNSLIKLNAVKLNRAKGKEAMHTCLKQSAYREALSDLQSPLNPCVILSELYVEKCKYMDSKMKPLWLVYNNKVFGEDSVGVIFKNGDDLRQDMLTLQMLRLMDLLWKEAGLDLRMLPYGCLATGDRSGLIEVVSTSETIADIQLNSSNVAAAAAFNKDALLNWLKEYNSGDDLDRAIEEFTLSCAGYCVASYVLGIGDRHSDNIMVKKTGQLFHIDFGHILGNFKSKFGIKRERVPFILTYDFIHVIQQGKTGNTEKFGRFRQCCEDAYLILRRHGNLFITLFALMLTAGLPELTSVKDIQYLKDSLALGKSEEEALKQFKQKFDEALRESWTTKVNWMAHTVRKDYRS
PI3K p110β/p85α (human), sequence (P27986 whole entry partner): as the sequence (P27986 whole entry partner) above

ratio of IC50 (ATM) and IC50 (PI3Kalpha), selectivity with respect to PI3Kalpha [1] | ratio of IC50 (ATM) and IC50 (PI3Kdelta), selectivity with respect to PI3Kdelta [2] | ratio of IC50 (ATM) and IC50 (PI3Kgamma), selectivity with respect to PI3Kgamma [3] | ratio IC50 (ATM):IC50 (PI3Kbeta), selectivity with respect to PI3Kbeta [5] | Compound | ratio IC50 (ATM):IC50 (mTOR), selectivity with respect to mTOR [4]
at least 2000 times | at least 2000 times | at least 2000 times |  | COCCOc1cnc(-n2c(=O)n(C)c3cnc4cc(OC)c(-c5cnn(C)c5)cc4c32)c(F)c1 [Example 66, 1-[3-Fluoro-5-(2-methoxy-ethoxy)-2-pyridyl]-7-methoxy-3-methyl-8-(1-methylpyrazol-4-yl)imidazo-[4,5-c]quinolin-2-one] | 
at least 2000 times | at least 2000 times | at least 2000 times |  | COc1cc2ncc3c(c2cc1-c1cnn(C)c1)n(-c1ncc(OCCO)cc1F)c(=O)n3C [Example 67, 1-[3-Fluoro-5-(2-hydroxy-ethoxy)-2-pyridyl]-7-methoxy-3-methyl-8-(1-methylpyrazol-4-yl)imidazo-[4,5-c]quinolin-2-one] | 
at least 2000 times | at least 2000 times | at least 2000 times |  | COc1cc2ncc3c(c2cc1-c1c[nH]nc1C)n(-c1ncc(F)cc1F)c(=O)n3C [Example 117, 1-(3,5-Difluoropyridin-2-yl)-7-methoxy-3-methyl-8-(3-methyl-1H-pyrazol-4-yl)-1,3-dihydroimidazo[4,5-c]-quinolin-2-one] | 
at least 2000 times | at least 2000 times | at least 2000 times |  | COc1cc2ncc3c(c2cc1-c1cnn(C)c1)n(-c1cc2[nH]ccc2cn1)c(=O)n3C [Example 120, 7-Methoxy-3-methyl-8-(1-methyl-1H-pyrazol-4-yl)-1-(1H-pyrrolo[3,2-c]pyridin-6-yl)-1,3-dihydroimidazo-[4,5-c]quinolin-2-one] | at least 2000 times
 |  |  |  | COc1cc2ncc3c(c2cc1-c1cc[nH]n1)n(-c1cn(C)nc1C)c(=O)n3C [Example 121, 1-(1,3-Dimethyl-1H-pyrazol-4-yl)-7-methoxy-3-methyl-8-(1H-pyrazol-3-yl)-1,3-dihydroimidazo[4,5-c]-quinolin-2-one] | at least 2000 times
at least 2000 times | at least 2000 times | at least 2000 times |  | COc1cc2ncc3c(c2cc1-c1cnn(C)c1)n(-c1ncc(N2CCNCC2)cc1F)c(=O)n3C [Example 123, 1-(3-Fluoro-5-piperazin-1-yl-pyridin-2-yl)-7-methoxy-3-methyl-8-(1-methyl-1H-pyrazol-4-yl)-1,3-dihydro-imidazo[4,5-c]quinolin-2-one] | 
 |  |  | at least 2000 times | COc1ccc(-c2cc3c(cc2OC)ncc2c3n(-c3c(F)cncc3OC)c(=O)n2C)cn1 [Example 137, 1-(3-Fluoro-5-methoxy-pyridin-4-yl)-7-methoxy-8-(6-methoxypyridin-3-yl)-3-methyl-1,3-dihydroimidazo-[4,5-c]quinolin-2-one] | 
 |  |  |  | CNC(=O)c1cnc(-n2c(=O)n(C)c3cnc4cc(OC)c(-c5cnn(C)c5)cc4c32)c(F)c1 [Example 138, 5-Fluoro-6-[7-methoxy-3-methyl-8-(1-methyl-1H-pyrazol-4-yl)-2-oxo-2,3-dihydroimidazo[4,5-c]-quinolin-1-yl]-N-methyl-nicotinamid] | at least 2000 times
 |  |  |  | COc1cc2ncc3c(c2cc1-c1cnn(C)c1)n(-c1cn(C)nc1F)c(=O)n3C [Example 141, 1-(3-Fluoro-1-methyl-1H-pyrazo1-4-yl)-7-methoxy-3-methyl-8-(1-methyl-1H-pyrazol-4-yl)-1,3-dihydro-imidazo[4,5-c]quinolin-2-one] | at least 2000 times
 |  |  |  | COc1cc2ncc3c(c2cc1-c1cn(C)nc1C)n(-c1c(F)cncc1OC(F)F)c(=O)n3C [Example 147, 1-(3-Difluoromethoxy-5-fluoropyridin-4-yl)-8-(1,3-dimethyl-1H-pyrazol-4-yl)-7-methoxy-3-methyl-1,3-dihydroimidazo[4,5-c]-quinolin-2-one] | at least 2000 times
 |  |  |  | CCc1cnccc1-n1c(=O)n(C)c2cnc3cc(OC)c(-c4cnn(CC)c4)cc3c21 [Example 157, 8-(1-Ethyl-1H-pyrazol-4-yl)-1-(3-ethylpyridin-4-yl)-7-methoxy-3-methyl-1,3-dihydroimidazo[4,5-c] quinolin-2-one] | at least 2000 times
at least 2000 times | at least 2000 times | at least 2000 times |  | COc1cc2ncc3c(c2cc1-c1cnn(C)c1)n(-c1ncc(OC2CNC2)cc1F)c(=O)n3C [Example 205, 1-[5-(Azetidin-3-yloxy)-3-fluoropyridin-2-yl]-7-methoxy-3-methyl-8-(1-methyl-1H-pyrazol-4-yl)-1,3-dihydroimidazo[4,5-c]-quinolin-2-one] | 

Compound | ratio of IC50 (ATM) and IC50 (PI3Kalpha), selectivity with respect to PI3Kalpha [1] | ratio of IC50 (ATM) and IC50 (PI3Kdelta), selectivity with respect to PI3Kdelta [2] | ratio of IC50 (ATM) and IC50 (PI3Kgamma), selectivity with respect to PI3Kgamma [3] | ratio IC50 (ATM):IC50 (PI3Kbeta), selectivity with respect to PI3Kbeta [5] | ratio IC50 (ATM):IC50 (mTOR), selectivity with respect to mTOR [4]
COc1cc2ncc3c(c2cc1-c1cnn(C)c1)n(-c1ncc(OC(F)F)cc1F)c(=O)n3C [Example 114, 1-(5-Difluoromethoxy-3-fluoropyridin-2-yl)-7-methoxy-3-methyl-8-(1-methyl-1H-pyrazol-4-yl)-1,3-dihydroimidazo[4,5-c]-quinolin-2-one] | at least 2000 times | at least 2000 times | at least 2000 times |  | at least 2000 times
COc1cnc(-n2c(=O)n(C)c3cnc4cc(OC)c(-c5c[nH]nc5C)cc4c32)c(F)c1 [Example 122, 1-(3-Fluoro-5-methoxy-pyridin-2-yl)-7-methoxy-3-methyl-8-(3-methyl-1H-pyrazol-4-yl)-1,3-dihydro-imidazo[4,5-c]quinolin-2-one] | at least 2000 times | at least 2000 times | at least 2000 times |  | at least 2000 times
CCc1cncc(F)c1-n1c(=O)n(C)c2cnc3cc(OC)c(-c4cn(C)nn4)cc3c21 [Example 126, 1-(3-Ethyl-5-fluoropyridin-4-yl)-7-methoxy-3-methyl-8-(1-methyl-1H-1,2,3-triazol-4-yl)-1,3-dihydroimidazo-[4,5-c] quinolin-2-one] | at least 2000 times | at least 2000 times | at least 2000 times |  | at least 2000 times
